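48-hour exposure; five concentrations; linearly interpolated endpoints. Here, GI50 denotes the concentration required for 50% inhibition of growth.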 Calls of active or inactive are those of the source. No stated cut-off is given here; in the data, active = GI50 up to about 1.1 µM and inactive = higher.
Columns and labels:
Assay in all cases: growth of human tumour cells (NCI), 48 h
SF-268 = tested on: SF-268
K562 = tested on: K562
SK-OV-3 = tested on: SK-OV-3
RXF 393 = tested on: RXF 393
M14 = tested on: M14
IGROV-1 = tested on: IGROV-1
NCI/ADR-RES = tested on: NCI/ADR-RES
HCC 2998 = tested on: HCC 2998
U-251 = tested on: U-251
PC-3 = tested on: PC-3
SK-MEL-2 = tested on: SK-MEL-2
MDA-MB-231 = tested on: MDA-MB-231
UACC-257 = tested on: UACC-257
786-0 = tested on: 786-0
DMS-114 = tested on: DMS-114
LOX IMVI = tested on: LOX IMVI
T47D = tested on: T47D
MOLT-4 = tested on: MOLT-4
TK-10 = tested on: TK-10
NCI-H522 = tested on: NCI-H522

Row | Compound | GI50 (SF-268) | GI50 (K562) | GI50 (SK-OV-3) | GI50 (RXF 393) | GI50 (M14) | GI50 (IGROV-1) | GI50 (NCI/ADR-RES) | GI50 (HCC 2998) | GI50 (U-251) | GI50 (PC-3) | GI50 (SK-MEL-2) | GI50 (MDA-MB-231) | GI50 (UACC-257) | GI50 (786-0) | GI50 (DMS-114) | GI50 (LOX IMVI) | GI50 (T47D) | GI50 (MOLT-4) | GI50 (TK-10) | GI50 (NCI-H522)
1 | CCC(C)SC1SCC2C(=O)N(C)C3(CC3C)C(=O)OCC(NC(=O)c3nc4ccccc4cc3O)C(=O)NC(C)C(=O)N(C)C1C(=O)N(C)C1(CC1C)C(=O)OCC(NC(=O)c1nc3ccccc3cc1O)C(=O)NC(C)C(=O)N2C (configuration not stated) | 0.0481 nM (active) | 0.0277 nM (active) | 0.144 nM (active) | 0.0476 nM (active) | 0.116 nM (active) | 0.137 nM (active) | 33.1 nM (active) | 0.103 nM (active) | 0.0318 nM (active) | 0.116 nM (active) | 0.0437 nM (active) | 0.0578 nM (active) | 0.053 nM (active) | 0.034 nM (active) | 0.107 nM (active) | 0.026 nM (active) | 0.219 nM (active) | 0.128 nM (active) | – | –
2 | Cc1cc(Cl)ccc1Nc1nc2c(s1)C(=O)c1ccccc1C2=O | 3240 nM (inactive) | 2410 nM (inactive) | 8490 nM (inactive) | 7280 nM (inactive) | 948 nM (active) | 4510 nM (inactive) | – | 6340 nM (inactive) | 3280 nM (inactive) | 1820 nM (inactive) | 8450 nM (inactive) | 1300 nM (inactive) | 2530 nM (inactive) | 1710 nM (inactive) | 2200 nM (inactive) | 1530 nM (inactive) | 2020 nM (inactive) | 1860 nM (inactive) | 16900 nM (inactive) | 1990 nM (inactive)
